Laboratory results published in patent US8912186B2, “Allosteric protein kinase modulators” (Universitaet des Saarlandes, priority 2008, dated 2014).

What was measured:
Type in all cases: biochemical
PDK1 = biological target: T1, PDK1 (Homo sapiens, UniProt O15530); test: cell-free kinase activity assay (ATPgamma[32P], T308tide substrate); conditions: for AC50 / AC50 PDK1 (μM): concentration of the compound required to activate half maximally; for AC50 / max. activation of PDK1 (fold) / AC50 PDK1 (μM): n.e.: no effect; for max. activation of PDK1 (fold): maximum activation achievable, compared to the basal activity of PDK1
T1 construct: GST
T1 sequence (O15530 1-556): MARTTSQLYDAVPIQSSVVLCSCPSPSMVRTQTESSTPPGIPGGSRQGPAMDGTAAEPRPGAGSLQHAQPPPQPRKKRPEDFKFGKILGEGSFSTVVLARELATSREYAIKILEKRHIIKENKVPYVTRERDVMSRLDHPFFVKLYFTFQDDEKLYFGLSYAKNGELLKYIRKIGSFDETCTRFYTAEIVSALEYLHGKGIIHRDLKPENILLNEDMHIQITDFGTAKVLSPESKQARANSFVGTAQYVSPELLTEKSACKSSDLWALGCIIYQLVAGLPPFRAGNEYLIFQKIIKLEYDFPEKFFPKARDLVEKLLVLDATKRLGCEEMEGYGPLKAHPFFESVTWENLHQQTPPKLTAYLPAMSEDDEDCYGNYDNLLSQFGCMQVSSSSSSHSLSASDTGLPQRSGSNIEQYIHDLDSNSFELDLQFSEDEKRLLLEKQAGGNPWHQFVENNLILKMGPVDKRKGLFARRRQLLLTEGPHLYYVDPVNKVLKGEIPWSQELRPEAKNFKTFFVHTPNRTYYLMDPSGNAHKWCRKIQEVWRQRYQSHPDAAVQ
Description: Principle of the cell-free kinase activity assay: In general, the activity of the compounds as protein kinase inhibitors or activators may be assayed in vitro (cell free assay is meant here), in vivo or in a cell line. In vitro assays include assays that determine inhibition or activation of either the phosphorylation activity or ATPase activity of the activated protein kinase. Alternate in vitro assays quantitate the ability of the inhibitor to bind to the protein kinase. Compound binding may be measured by radiolabelling the compound prior to binding, isolating the inhibitor or activator/protein kinase complex and determining the amount of radiolabel bound. Alternatively, inhibitor or activator binding may be determined by running a competition experiment where new compounds are incubated with the protein kinase bound to known radioligands. Newer methods comprise fluorescence polarisation assays and surface plasmon resonance dependent techniques. […] The activity and modulation of activity is measured using a standard ATPgamma[^32P] assay as described earlier. […] The concentration of T308tide is 1 mM and the amount of PDK1 used is 200 ng. Reactions are carried out at room temperature. Reaction is started by addition of ATP-Mg mix and stopped with phosphoric acid after 30 min. Stopped reactions were spotted on to phosphocellulose paper (P81, Whatman) and washed. After drying, the radioactivity associated to the band was quantified.

PKA = PKA (Homo sapiens, UniProt P17612); test: cell-free kinase activity assay; conditions: DMSO control set 100%
SGK = biological target: T2, SGK (Homo sapiens, UniProt O00141); test: cell-free kinase activity assay; conditions: DMSO control set 100%
T2 sequence (O00141 1-431): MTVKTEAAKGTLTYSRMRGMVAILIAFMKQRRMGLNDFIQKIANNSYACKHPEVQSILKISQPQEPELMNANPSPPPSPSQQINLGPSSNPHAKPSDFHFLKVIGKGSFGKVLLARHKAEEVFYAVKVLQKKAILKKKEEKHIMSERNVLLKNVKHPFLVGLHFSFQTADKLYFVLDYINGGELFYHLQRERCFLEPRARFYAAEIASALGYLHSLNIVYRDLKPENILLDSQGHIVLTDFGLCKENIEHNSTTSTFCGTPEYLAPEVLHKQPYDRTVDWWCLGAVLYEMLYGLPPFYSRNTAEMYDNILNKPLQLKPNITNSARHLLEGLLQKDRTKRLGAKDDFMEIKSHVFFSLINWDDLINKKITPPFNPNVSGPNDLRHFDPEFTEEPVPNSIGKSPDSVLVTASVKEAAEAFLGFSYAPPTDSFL

PRK2 = PRK2 (Homo sapiens, UniProt Q16513); test: cell-free kinase activity assay; conditions: DMSO control set 100%
PKBβ = PKBβ (Homo sapiens, UniProt P31751); test: cell-free kinase activity assay; conditions: DMSO control set 100%
S6K = S6K (Homo sapiens, UniProt P23443); test: cell-free kinase activity assay; conditions: DMSO control set 100%
Sequence of S6K (P23443 whole entry): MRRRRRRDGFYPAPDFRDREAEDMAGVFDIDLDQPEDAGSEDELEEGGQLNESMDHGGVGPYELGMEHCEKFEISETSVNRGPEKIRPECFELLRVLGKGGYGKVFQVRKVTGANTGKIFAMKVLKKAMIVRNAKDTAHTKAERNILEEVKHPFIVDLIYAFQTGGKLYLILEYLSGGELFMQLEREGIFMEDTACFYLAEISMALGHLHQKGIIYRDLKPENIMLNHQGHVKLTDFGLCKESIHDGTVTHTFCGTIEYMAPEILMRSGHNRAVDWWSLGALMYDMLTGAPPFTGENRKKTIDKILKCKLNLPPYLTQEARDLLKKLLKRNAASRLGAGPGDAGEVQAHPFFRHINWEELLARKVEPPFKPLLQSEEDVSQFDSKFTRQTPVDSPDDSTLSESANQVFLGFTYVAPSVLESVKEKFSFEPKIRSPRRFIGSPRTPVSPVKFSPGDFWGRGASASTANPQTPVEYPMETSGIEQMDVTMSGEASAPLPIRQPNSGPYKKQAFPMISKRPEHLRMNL

Sequence of PKBβ (P31751 whole entry, species assumed): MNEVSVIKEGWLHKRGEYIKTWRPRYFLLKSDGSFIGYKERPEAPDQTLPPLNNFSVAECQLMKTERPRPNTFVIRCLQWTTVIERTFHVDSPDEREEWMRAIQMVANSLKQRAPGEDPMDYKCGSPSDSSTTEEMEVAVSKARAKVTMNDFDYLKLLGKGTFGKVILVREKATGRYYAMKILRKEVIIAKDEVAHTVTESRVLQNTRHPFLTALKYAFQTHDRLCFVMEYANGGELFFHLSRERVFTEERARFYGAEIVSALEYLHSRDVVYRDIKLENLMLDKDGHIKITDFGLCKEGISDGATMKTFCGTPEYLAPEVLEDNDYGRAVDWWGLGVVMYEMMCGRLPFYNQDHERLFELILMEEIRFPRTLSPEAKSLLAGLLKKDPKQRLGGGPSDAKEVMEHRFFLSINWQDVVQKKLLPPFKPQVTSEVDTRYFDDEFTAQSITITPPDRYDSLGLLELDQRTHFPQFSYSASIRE
Sequence of PRK2 (Q16513 whole entry, species assumed): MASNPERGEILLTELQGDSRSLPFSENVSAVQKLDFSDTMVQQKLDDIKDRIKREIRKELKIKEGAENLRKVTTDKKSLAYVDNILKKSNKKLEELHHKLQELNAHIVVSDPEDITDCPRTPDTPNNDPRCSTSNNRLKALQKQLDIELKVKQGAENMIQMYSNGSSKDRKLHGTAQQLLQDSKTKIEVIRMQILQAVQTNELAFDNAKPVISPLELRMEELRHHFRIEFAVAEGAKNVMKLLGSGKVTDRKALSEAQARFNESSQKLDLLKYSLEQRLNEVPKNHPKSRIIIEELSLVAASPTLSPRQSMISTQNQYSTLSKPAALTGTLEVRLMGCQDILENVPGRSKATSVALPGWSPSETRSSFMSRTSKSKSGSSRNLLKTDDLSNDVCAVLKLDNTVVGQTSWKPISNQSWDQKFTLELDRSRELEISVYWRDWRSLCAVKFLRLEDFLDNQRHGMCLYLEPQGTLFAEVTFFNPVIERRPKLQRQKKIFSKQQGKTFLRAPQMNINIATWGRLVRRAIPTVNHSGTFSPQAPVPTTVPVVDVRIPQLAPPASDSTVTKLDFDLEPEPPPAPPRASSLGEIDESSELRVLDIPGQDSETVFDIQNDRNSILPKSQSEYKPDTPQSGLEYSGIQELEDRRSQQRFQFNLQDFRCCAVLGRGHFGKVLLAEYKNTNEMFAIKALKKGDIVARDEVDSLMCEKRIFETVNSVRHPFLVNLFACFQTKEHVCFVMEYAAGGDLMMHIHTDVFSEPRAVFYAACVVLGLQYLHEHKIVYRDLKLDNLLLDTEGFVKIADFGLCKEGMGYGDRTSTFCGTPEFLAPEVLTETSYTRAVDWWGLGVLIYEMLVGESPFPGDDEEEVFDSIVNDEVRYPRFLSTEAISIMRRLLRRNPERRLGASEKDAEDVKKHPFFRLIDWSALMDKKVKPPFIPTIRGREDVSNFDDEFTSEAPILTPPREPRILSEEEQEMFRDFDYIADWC

Structure (SMILES)	AC50 (PDK1)	max. activation of PDK1 (fold) (PDK1)	also measured
O=C(O)C=C(c1ccccc1)c1cc2cc(Cl)ccc2o1 (mixture of isomers) [PS 101, (E/Z)-3-(5-Chloro-2-benzofuranyl)-3-phenylacrylic acid]	31.6 µM	3.2 fold	
Cc1ccc2oc(C(=CC(=O)O)c3ccccc3)cc2c1 (mixture of isomers) [PS 103, (E/Z)-3-(5-Methyl-2-benzofuranyl)-3-phenylacrylic acid]	41.3 µM	3.1 fold	
O=C(O)/C=C(\CCc1cccc(Cl)c1)c1ccccc1 [PS 88, (E)-5-(3-Chlorophenyl)-3-phenylpent-2-enoic acid]	> 100 µM	2 fold	
O=C(O)/C=C(\COc1ccc(Cl)cc1)c1ccccc1 [PS 95, (Z)-4-(4-Chlorophenoxy)-3-phenylbut-2-enoic acid]	> 60 µM	2.7 fold	
O=C(O)/C=C(/COc1ccc(Cl)cc1)c1ccccc1 [PS 97, (E)-4-(4-Chlorophenoxy)-3-phenylbut-2-enoic acid]	22.8 µM	3.0 fold	
O=C(O)/C=C(\c1ccccc1)c1cc2cc(Cl)ccc2s1 [PS 119, (E)-3-(5-Chloro-2-benzothiophenyl)-3-phenylacrylic acid]	13.2 µM	3.1 fold	
Cc1ccc2oc(C(CC(=O)O)c3ccccc3)cc2c1 (centres unmarked) [PS 120, 3-(5-Methyl-2-benzofuranyl)-3-phenylpropanoic acid]	29.1 µM	2.7 fold	
O=C(O)CC(c1ccccc1)c1cc2cc(Cl)ccc2o1 (centres unmarked) [PS 124, 3-(5-Chloro-2-benzofuranyl)-3-phenylpropanoic acid]	19 µM	2.9 fold	
CCc1ccc(CC/C(=C\C(=O)O)c2ccccc2)cc1 [PS 129, (E)-5-(4-Ethylphenyl)-3-phenylpent-2-enoic acid]	> 100 µM	1.5 fold	
CCc1ccc(CC/C(=C/C(=O)O)c2ccccc2)cc1 [PS 130, (Z)-5-(4-Ethylphenyl)-3-phenylpent-2-enoic acid]	> 30 µM	1.4 fold	
O=C(O)/C=C(\CCc1ccc(Cl)c(Cl)c1)c1ccccc1 [PS 131, (E)-5-(3,4-Dichlorophenyl)-3-phenylpent-2-enoic acid]	> 100 µM	2 fold	
O=C(O)/C=C(\CCc1ccc(Cl)cc1Cl)c1ccccc1 [PS 135, (E)-5-(2,4-Dichlorophenyl)-3-phenylpent-2-enoic acid]		n.e.	AC50 PDK1 (μM) (PDK1): n.e.
O=C(O)/C=C(\CCc1ccc(F)cc1)c1ccccc1 [PS 136, (E)-5-(4-Fluorophenyl)-3-phenylpent-2-enoic acid]	> 100 µM	1.3 fold	
O=C(O)/C=C(\CCc1ccc(Br)cc1)c1ccccc1 [PS 137, (E)-5-(4-Bromophenyl)-3-phenylpent-2-enoic acid]	> 100 µM	2 fold	
O=C(O)/C=C(\CCc1ccc2ccccc2c1)c1ccccc1 [PS 138, (E)-5-(2-Naphthalenyl)-3-phenylpent-2-enoic acid]	27.1 µM	3.1 fold	
O=C(O)/C=C(\CCc1ccc(C(F)(F)F)cc1)c1ccccc1 [PS 140, (E)-3-Phenyl-5-[4-(trifluoromethyl)phenyl]pent-2-enoic acid]		n.e.	AC50 PDK1 (μM) (PDK1): n.e.
O=C(O)/C=C(\CCc1c[nH]c2ccccc12)c1ccccc1 [PS 158, (E)-5-(1H-Indol-3-yl)-3-phenylpent-2-enoic acid]	34.6 µM	2.9 fold	
O=C(O)/C=C(/CCc1c[nH]c2ccccc12)c1ccccc1 [PS 159, (Z)-5-(1H-Indol-3-yl)-3-phenylpent-2-enoic acid]	9.3 µM	3.7 fold	
O=C(O)CC(Cc1nc2c(Cl)cc(Cl)cc2[nH]1)c1ccc(Cl)cc1 (centres unmarked) [PS 171, 4-(5,7-Dichloro-2-benzimidazolyl)-3-(4-chlorophenyl)butanoic acid]			percent of catalytic activity of the Kinase in the presence of compound as compared to the solvent control (DMSO): PKA (PKA; 50 μM compound): no effect; remaining activity at 200 µM (PKA; 200 μM compound, read-out: percent of catalytic activity of the Kinase in the presence of compound as compared to the solvent control (DMSO): PKA): 80 to 90%; percent of catalytic activity of the Kinase in the presence of compound as compared to the solvent control (DMSO): SGK (SGK; 50 μM compound): no effect; remaining activity at 200 µM (SGK; 200 μM compound, read-out: percent of catalytic activity of the Kinase in the presence of compound as compared to the solvent control (DMSO): SGK): ~70%; percent of catalytic activity of the Kinase in the presence of compound as compared to the solvent control (DMSO): PRK2 (PRK2; 50 μM compound): no effect; percent of catalytic activity of the Kinase in the presence of compound as compared to the solvent control (DMSO): PRK2 (PRK2; 200 μM compound): no effect; percent of catalytic activity of the Kinase in the presence of compound as compared to the solvent control (DMSO): PKBβ (PKBβ; 50 μM compound): no effect; remaining activity at 200 µM (PKBβ; 200 μM compound, read-out: percent of catalytic activity of the Kinase in the presence of compound as compared to the solvent control (DMSO): PKBβ): ~70%; percent of catalytic activity of the Kinase in the presence of compound as compared to the solvent control (DMSO): S6K (S6K; 50 μM compound): weak inhib.; remaining activity at 200 µM (S6K; 200 μM compound, read-out: percent of catalytic activity of the Kinase in the presence of compound as compared to the solvent control (DMSO): S6K): ~50%; activity at 200 µM (PDK1; 200 μM compound, DMSO control set 100%, read-out: percent of catalytic activity of the Kinase in the presence of compound as compared to the solvent control (DMSO): PDK1): ~200%
O=C(O)/C=C(/CCc1ccc(F)cc1)c1ccccc1 [PS-T3, (Z)-5-(4-Fluorophenyl)-3-phenylpent-2-enoic acid]	41 µM	3.3 fold	
O=C(O)/C=C(/CCc1ccc2ccccc2c1)c1ccccc1 [PS-T4, (Z)-5-(2-Naphthalenyl)-3-phenylpent-2-enoic acid]	4 µM	more than 4 fold	max. activation of PDK1 (fold) (PDK1; listed as T4): 4.2 fold
O=C(O)/C=C(/CCc1ccc(Cl)c(Cl)c1)c1ccccc1 [PS-T7, (Z)-5-(3,4-Dichlorophenyl)-3-phenylpent-2-enoic acid]	8 µM	3.4 fold	
O=C(O)/C=C(/CCc1ccc(Cl)cc1Cl)c1ccccc1 [PS-T9, (Z)-5-(2,4-Dichlorophenyl)-3-phenylpent-2-enoic acid]	9.4 µM	2.2 fold	
